Measured values reported in the Kinase Knowledgebase extract (Sharma et al. 2016).

molecular target: EGFR (human) (UniProt P00533)
Sequence (P00533 whole entry, looked up): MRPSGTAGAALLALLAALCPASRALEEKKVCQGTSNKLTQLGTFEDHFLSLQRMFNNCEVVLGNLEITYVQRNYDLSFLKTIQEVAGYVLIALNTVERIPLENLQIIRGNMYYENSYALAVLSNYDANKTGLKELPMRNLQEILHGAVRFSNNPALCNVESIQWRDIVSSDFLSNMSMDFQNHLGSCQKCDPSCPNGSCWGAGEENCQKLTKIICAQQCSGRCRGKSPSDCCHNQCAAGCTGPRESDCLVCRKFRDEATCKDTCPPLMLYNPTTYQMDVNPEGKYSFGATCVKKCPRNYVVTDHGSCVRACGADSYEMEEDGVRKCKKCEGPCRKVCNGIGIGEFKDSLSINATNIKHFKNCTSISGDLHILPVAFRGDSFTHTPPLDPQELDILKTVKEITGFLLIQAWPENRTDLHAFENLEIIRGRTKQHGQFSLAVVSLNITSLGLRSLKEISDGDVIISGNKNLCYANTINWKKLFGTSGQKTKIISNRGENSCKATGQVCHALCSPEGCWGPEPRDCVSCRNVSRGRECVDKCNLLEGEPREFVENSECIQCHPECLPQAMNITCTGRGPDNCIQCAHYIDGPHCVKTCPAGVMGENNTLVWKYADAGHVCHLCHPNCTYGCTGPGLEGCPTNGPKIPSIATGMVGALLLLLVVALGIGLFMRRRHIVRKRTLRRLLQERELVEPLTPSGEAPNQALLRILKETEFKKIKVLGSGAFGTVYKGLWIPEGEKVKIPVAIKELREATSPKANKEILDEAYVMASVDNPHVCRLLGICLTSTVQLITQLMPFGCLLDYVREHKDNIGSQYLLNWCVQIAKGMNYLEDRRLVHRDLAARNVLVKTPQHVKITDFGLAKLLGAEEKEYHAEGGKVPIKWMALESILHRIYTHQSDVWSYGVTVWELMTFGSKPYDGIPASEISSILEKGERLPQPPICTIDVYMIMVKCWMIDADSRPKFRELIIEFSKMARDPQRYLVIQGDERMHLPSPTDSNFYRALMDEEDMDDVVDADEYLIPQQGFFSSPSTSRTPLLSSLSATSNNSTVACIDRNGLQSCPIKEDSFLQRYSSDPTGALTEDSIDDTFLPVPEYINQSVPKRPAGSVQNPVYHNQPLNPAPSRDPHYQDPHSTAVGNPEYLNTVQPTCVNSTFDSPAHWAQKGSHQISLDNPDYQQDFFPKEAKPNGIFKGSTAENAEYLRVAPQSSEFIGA

SMILES | IC50
Nc1ncc(-c2cccc(C(=O)NCc3ccc(Cl)cc3)c2)nc1C(=O)N[C@H]1CCCNC1 | ≥ 10 µM
COc1ccc(CNC(=O)c2cccc(-c3cnc(N)c(C(=O)N[C@H]4CCCNC4)n3)c2)cc1 | ≥ 10 µM
Nc1ncc(-c2cccc(CNC(=O)c3ccc(F)cc3)c2)nc1C(=O)N[C@H]1CCCNC1 | 1 to 10 µM
Nc1ncc(-c2cccc(C(=O)NCc3ccc(Cl)cc3F)c2)nc1C(=O)N[C@H]1CCCNC1 | ≥ 10 µM
Cc1ccc(CNC(=O)c2cccc(-c3cnc(N)c(C(=O)N[C@H]4CCCNC4)n3)c2)c(F)c1F | ≥ 10 µM
CCNCCOc1cccc(-c2cnc(N)c(C(=O)N[C@H]3CCCNC3)n2)c1 | 1 to 10 µM
Nc1ncc(-c2cccc(CNC(=O)c3cccs3)c2)nc1C(=O)N[C@H]1CCCNC1 | 1 to 10 µM
Nc1ncc(-c2cccc(C(=O)NCc3ccc(OC(F)(F)F)cc3)c2)nc1C(=O)N[C@H]1CCCNC1 | ≥ 10 µM
Nc1ncc(-c2cccc(CN[C@@H]3c4ccccc4C[C@@H]3O)c2)nc1C(=O)N[C@H]1CCCNC1 | 1 to 10 µM
Nc1ncc(-c2cccc(NC(=O)c3cnc4ccccc4c3)c2)nc1C(=O)N[C@H]1CCCNC1 | 1 to 10 µM
Nc1ncc(-c2cccc(CNC(=O)Nc3ccc(-c4ccccc4)cc3)c2)nc1C(=O)N[C@H]1CCCNC1 | ≥ 10 µM
CN(C)c1ccc(CNC(=O)c2cccc(-c3cnc(N)c(C(=O)N[C@H]4CCCNC4)n3)c2)cc1 | ≥ 10 µM
Nc1ncc(-c2cccc(NC(=O)Cc3ccc(F)cc3F)c2)nc1C(=O)N[C@H]1CCCNC1 | 0.05 to 1 µM
